Measured values taken from PubChem BioAssay AID179 (DTP/NCI, 2004).
pEC50, pIC50: −log10 of the molar value. Values joined by “and” are separate entries in the source; they are usually repeats but may differ in a detail not shown here. Identical values can stand only once. Active and inactive are the calls of the source.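 How the source made its calls: active means compounds giving half or more protection of infected cells from virus-caused growth loss, again on retest; inactive means the rest.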

Tested on: CEM cells HIV-1 protection, formazan growth assay
Experiment: NCI AIDS Antiviral Assay
Details: for pIC50: measured here: growth of uninfected CEM cells
How it was run: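 Soluble formazan readout of cell growth; CEM cells ± HIV-1; 5 drug concs. ≥50% protection → retest; ≥50% again = moderately active; reproducible 100% = confirmed active.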

| Compound | pEC50 | pIC50 | outcome |
| --- | --- | --- | --- |
| CCOP(=Nc1ccc(N(C)C)cc1)(OCC)OCC | < 3.70 | < 3.70 | – |
| CCO/C=C1\N=C(C(Cl)c2ccccc2)OC1=O (stereo not drawn) | < 3.87 | < 3.87 | – |
| C=CC[C@H](C)CCC(=O)N1[C@H]2CC3CC[C@@]2(CS1(=O)=O)C3(C)C | < 3.70 | 4.12 | – |
| COC(=O)c1cc(S(=O)(=O)NC2=NCC(C)NN2)c(S)cc1Cl (stereo not drawn) | < 3.70 | 4.77 | – |
| C/C1=C\[C@@H](O)C(=O)/C=C/C=C\c2csc(n2)[C@@H](C)NC(=O)C[C@@]2(CC1)S(=O)SC(=O)[C@]2(C)O (stereo partly drawn) | < 5.88 | 8.26 | – |
| IC[P+]1(c2ccccc2)CCCC1 | < 3.24 | 4.26 | – |
| CN[C@@H](C)[C@H](NC)c1ccccc1 | – | – | inactive |
| C=CCn1c2c(c3ccccc3c1=O)C(=O)c1ccccc1-2 | < 4.04 | < 4.04 | – |
| C[C@H](C/C=C/C(C)(C)O)[C@H]1CC[C@@]2(C)[C@@H]3CC[C@H]4C(C)(C)[C@@H](O)CC[C@@]45C[C@@]35CC[C@]12C | < 3.70 | 5.33 | – |
| COc1cccc(CCn2c(N)c(C(=O)O)c3ccc([N+](=O)[O-])cc3c2=O)c1 | < 3.70 | 4.62 | – |
| CCCCCCCCCCCCOC1C(COCCN2CCCC2)OC2OC(C)(C)OC21 (stereo not drawn) | < 3.70 | 5.52 | – |
| Cc1nc(C)c(C(=O)NNC(=O)C[n+]2ccccc2)cc1C(=O)NNC(=O)C[n+]1ccccc1 | < 3.70 | < 3.70 | – |
| O=C(O)C1Cc2nc[nH]c2CN1 (stereo not drawn) | – | – | inactive |
| CN1CN(c2ccccc2)C2(CCN(CCCC3(c4cccs4)OCCO3)CC2)C1=O | < 3.70 | 3.97 | – |
| COC(=O)[C@](NC(=O)OCc1ccccc1)([C@@H](C)S(=O)c1ccc(C)cc1)C(F)(F)F (stereo partly drawn) | < 3.70 | 4.53 | – |
| O=C1/C(=C/c2ccc([N+](=O)[O-])cc2)CCCc2ccccc21 | < 3.85 | < 3.85 | – |
| COc1cc(C#N)c(NC(=S)N2CCN(C(=O)c3ccco3)CC2)cc1OC | < 3.70 | 3.92 | – |
| Cc1nn(C(=O)c2ccncc2)c2c1C(c1ccccc1O)SC(N)=N2 (stereo not drawn) | 4.07 | 3.83 | – |
| Cc1cc(Cc2cc(C)c(O)c(C(=O)O)c2)cc(C(=O)O)c1O | 3.42 | 3.38 | – |
| COC(=O)C1C(O)C(C)C(O)C(C)/C=C\C=C(C)C(=O)Nc2c(C)c(OC(C)=O)c3c(c2O)C(=O)C(C)=C2OCOC(=C23)C(C)=CC(C)(O)C(O)C(C)C1O (stereo not drawn) | < 3.49 | 3.93 and 3.79 | – |
| CC(C#N)(c1ccccc1)N(CCc1ccccc1)C(=O)Oc1ccccc1 (stereo not drawn) | < 3.70 | < 3.70 | – |

| Compound | pEC50 | pIC50 | outcome |
| --- | --- | --- | --- |
| Cc1c(C(=O)CSc2nc3ccccc3[nH]2)c(=O)n(-c2ccccc2)n1C | < 4.02 | < 4.02 | – |
| Cc1sc2c(c1C)C(=O)c1cccn1-2 | < 3.70 | 3.77 | – |
| C/C(=N\N=C(/[O-])c1ccccc1)c1cccc(/C(C)=N/N=C(\[O-])c2ccccc2)n1.O.[Cu+2] | < 4.00 | 4.74 | – |
| Cc1nn2cnnc2s1 | < 3.30 | < 3.30 | – |
| COC(=O)C(=O)C(C(=O)C(=O)Nc1ccccc1C(N)=O)c1nc2ccc(C(=O)c3ccccc3)cc2[nH]c1=O (stereo not drawn) | < 3.62 | 4.20 | – |
| S=c1nnn(C2CCCN2)[nH]1 (stereo not drawn) | < 3.70 | < 3.70 | – |
| COc1cccc(NC(=O)CSc2nnc(-c3ccc(NC(C)=O)cc3)o2)c1 | < 4.19 | < 4.19 | – |
| CCOC(=O)COc1ccc(C[C@H](NC(=O)O[C@H]2CCOC2)[C@H](O)CN(CC(C)C)S(=O)(=O)c2ccc(N)cc2)cc1 | 7.23 | 4.19 | – |
| COC(=O)CCC12CCC(O1)c1ccccc12 (stereo not drawn) | < 3.70 | < 3.70 | – |
| COC(=O)c1c(C(=O)OC)c2c(-c3ccccc3)cc3cccc1n32 | < 5.09 | < 5.09 | – |
| CN(C)c1cccc2c(S(=O)(=O)NCCCNCCN)cccc12 | < 3.70 | 4.18 | – |
| COc1cc2ccc(/C(C)=N/OC(C)=O)cc2cc1OC | – | – | inactive |
| COc1cc(OC)c2c(O)c(S(=O)(=O)c3ccc(C)cc3)c(=O)oc2c1 | < 3.70 | < 3.70 | – |
| O=C(Cc1ccccc1)NN1C(=O)C(Cl)C1c1cc(Br)ccc1O (stereo not drawn) | < 4.90 | 5.16 | – |
| CC(=O)[C@@]1(O)CC[C@H]2[C@@H]3C[C@H](C)C4=CC(=O)C=C[C@]4(C)[C@@]3(F)[C@@H](O)C[C@@]21C | – | – | inactive |
| Nc1ncnc2c1ncn2C1CCC(=O)C1 (stereo not drawn) | < 2.94 | 3.76 | – |
| O=C(O)C1(Cc2ccccc2)Cc2ccccc2C1 | < 3.70 | < 3.70 | – |
| O=C1Cn2nc(C(=O)c3ccccc3C#Cc3ccccc3)c(-c3ccccc3)c2-c2ccccc21 | < 4.41 | < 4.41 | – |
| O=C(O)CCCc1ccc2c(c1)CC1(C2)Cc2ccc(CCCC(=O)O)cc2C1 | < 3.70 | 3.85 | – |
| CC(=O)OC1C(C)OC(OC2[C@@H]3C=CO[C@@H](OC4OC(CO)C(O)C(O)C4O)[C@@H]3[C@@]3(CO)O[C@@H]23)C(OC(=O)/C=C/c2ccccc2)C1OC(=O)/C=C/c1ccccc1 (stereo partly drawn) | < 4.66 | < 4.66 | – |
| CC1(C)CC(=O)C(C=NC(=S)c2ccccc2)=C(O)C1 | < 3.70 | < 3.70 | – |

| Compound | pEC50 | pIC50 | outcome |
| --- | --- | --- | --- |
| O=C1CCC2(O1)c1ccc(O)cc1Oc1cc(O)ccc12 | < 3.70 | < 3.70 | – |
| C/C(C=O)=C\c1ccc(N(C)C)cc1 | < 4.42 | < 4.42 | – |
| COc1cc2c(cc1OC)C1CCc3ccccc3CN1CC2 (stereo not drawn) | < 3.70 | 3.77 | – |
| CC(=O)NNC(=S)/N=C/C(C(=O)Nc1ccccc1)=C(/C)O | < 3.70 | < 3.70 | – |
| CC(=O)OC1COC(n2c3ccccc3c3ccc4c5ccccc5[nH]c4c32)C(OC(C)=O)C1OC(C)=O (stereo not drawn) | < 3.93 | 3.94 | – |
| C[N+](C)([O-])CCC=C1c2ccccc2CCc2ccccc21 | < 3.70 | 3.98 | – |
| Cc1cccc(Nc2nc3ccccc3nc2NS(=O)(=O)c2ccccc2)c1 | < 4.00 | 4.81 | – |
| Cc1ccc(N=Nc2c(C)nn(C(=O)CC(=O)Nc3ccccc3)c2C)cc1C | < 3.70 | < 3.70 | – |
| CN(C)c1ncnc2c1ncn2C1OC(CO)C(O)C1O (stereo not drawn) | – | – | inactive |
| CC(C)(C)[Si](C)(C)OC[C@H]1O[C@@H](n2ccc(=O)[nH]c2=O)[C@H](O[Si](C)(C)C(C)(C)C)[C@]1(O)[C@H](Cl)C(N)=O | < 3.70 | 5.43 | – |
| CN1C(=O)C(O)(c2c3c(c(C4(O)C(=O)N(C)c5ccccc54)c4c2OCO4)OCO3)c2ccccc21 (stereo not drawn) | < 3.70 | < 3.70 | – |
| C(=C/c1ccc2nc(-c3ccc(/C=C/C=N/NC4=NCCCN4)cc3)cn2c1)/C=N/NC1=NCCCN1 | < 4.00 | 4.78 | – |
| CC(=O)O/C=C1/C[C@H]2[C@@H]3CCC4CC(C(C)=O)CC[C@]4(C)[C@H]3CC[C@]2(C)C1=O (stereo partly drawn) | < 3.70 | 3.97 | – |
| O=C1/C(=C/c2ccc(O)cc2)Oc2ccccc21 | < 3.70 | 3.82 | – |
| CC(=O)O[C@]1(C)CCC2C(C)C(=O)OC2C2C(C)[C@@H](O)CC21 (stereo partly drawn) | < 3.70 | 4.46 | – |
| Cc1ccc(NC(=O)CC2SC(=Nc3cccc(Cl)c3C)NC2=O)cc1 (stereo not drawn) | < 3.62 | 3.96 | – |
| Cc1ccc(NC(=O)CC(=O)n2nc(-c3ccccc3)c(N=Nc3ccccc3C(=O)O)c2-c2ccccc2)cc1 | < 4.60 | < 4.60 | – |
| Oc1ccc(C2Oc3cc(O)c4cc3C2c2c3c(cc5c2[C@@H](c2cc(O)cc(O)c2)C(c2ccc(O)cc2)O5)O[C@@H](c2ccc(O)cc2)C3c2cc(O)cc3c2C4[C@H](c2ccc(O)cc2)O3)cc1 (stereo partly drawn) | < 4.80 | < 4.80 | – |
| CCCC[PH+](CCCC)CCCC.[C-]#[O+].[C-]#[O+].[C-]#[O+].[C-]#[O+].[Fe] | < 3.70 | < 3.70 | – |
| COc1ccc2c(c1)CC[C@@H]1[C@@H]2CC[C@]2(C)[C@H](O)[C@H](O)C[C@@H]12 | < 3.70 | 4.49 | – |
| CCOC(=O)c1cnccc1CC1(C#N)c2ccccc2C=CN1C(=O)c1ccccc1 (stereo not drawn) | < 3.70 | 4.75 | – |

| Compound | pEC50 | pIC50 | outcome |
| --- | --- | --- | --- |
| COc1ccc(/C=C2/SC(=Nc3ccccc3)N(NC(=O)Cc3ccccc3)C2=O)c(OC)c1 | < 4.12 | < 4.12 | – |
| COC(=O)c1cc2c(c(C(=O)OC)c1)CCC2 | < 3.70 | 4.39 | – |
| CN(C)c1ccc(C(Cc2ccccc2)C2NC(=S)NC2=O)cc1 (stereo not drawn) | < 3.70 | 4.81 | – |
| S=C(N/N=C(/c1ccccc1)c1ccccn1)Nc1ccccc1 | < 6.70 | 7.01 | – |
| Cc1cc(C)c2cc(=O)oc-2c(C)c1 | < 4.03 | < 4.03 | – |
| O=C1CCC2CCC1C2 (stereo not drawn) | < 3.70 | < 3.70 | – |
| Cc1ccc(S(=O)(=O)C2=Cc3ccc(C(F)(F)F)cc3C2(O)c2cccc(C(F)(F)F)c2)cc1 (stereo not drawn) | < 3.70 | 5.66 | – |
| CN(C)C(=S)/N=c1\ssc(=S)n1Cc1ccco1 | – | – | inactive |
| CCCCc1nc(C)oc1C(C)C | < 3.70 | < 3.70 | – |
| COC(=O)c1ccc2n[se]nc2c1 | – | – | inactive |
| COCN1C(=O)[C@@H]2C[C@@H](O)CN2C(=O)c2ccccc21 | < 3.70 | < 3.70 | – |
| N#Cc1c(N)c(C(=O)Nc2ccc(Cl)cc2)n2c1CCC2 | < 3.70 | < 3.70 | – |
| Cc1cc(NS(=O)(=O)c2ccc(Nc3c4ccccc4nc4c(C(=O)NCCN(C)C)cccc34)cc2)no1 | – | – | inactive |
| CC1CC2Oc3ccc(Cl)cc3C(=O)N2O1 (stereo not drawn) | < 3.70 | < 3.70 | – |
| O=c1/c(=C/c2ccc(Cl)cc2Cl)sc2nc3ccccc3n12 | – | – | inactive |
| COc1nc(NC2OC(COC(C)=O)C(OC(C)=O)C(OC(C)=O)C2OC(C)=O)c(N=CC=Nc2c(NC3OC(COC(C)=O)C(OC(C)=O)C(OC(C)=O)C3OC(C)=O)nc(OC)[nH]c2=O)c(=O)[nH]1 (stereo not drawn) | – | – | inactive |
| CCOC(=O)/C(Cc1cc(=O)n(C)c2ccccc12)=N\Nc1ccccc1 | < 3.70 | < 3.70 | – |
| O=Nc1c[nH]c(=O)[nH]c1=O | < 3.70 | < 3.70 | – |
| CCOP1(OCC)(SSC)OC(=O)C(C)S1 (stereo not drawn) | < 3.09 | 3.21 | – |
| O=C(Nc1ccccc1)c1cc(S(=O)(=O)n2cc[nH]c2=O)c(S)cc1Cl | < 3.70 | < 3.70 | – |
| COc1ccccc1/C=C\C#N | < 4.07 | < 4.07 | – |
